Data taken from ChEMBL document CHEMBL4190340, “Studies on the cytotoxicity and anticancer performance of heterocyclic hypervalent organobismuth(III) compounds” (Eur J Med Chem, 2017).
Activity calls are given as the source filed them. The rule behind the calls is not given here.

Assays:
[1] = test system: A549; experiment: Induction of apoptosis in human A549 cells assessed as late apoptotic cells in presence of z-VAD-fmk by Annexin V-FITC/propidium iodide staining based flow cytometric analysis (reference value: 1.66%); assay type: functional, cell-based
[2] = test system: A549; experiment: Induction of apoptosis in human A549 cells assessed as late apoptotic cells at 10 uM after 48 hrs by Annexin V-FITC/propidium iodide staining based flow cytometric analysis (reference value: 1.73%); assay type: functional, cell-based
[3] = test system: A549; experiment: Induction of apoptosis in human A549 cells assessed as early apoptotic cells by Annexin V-FITC/propidium iodide staining based flow cytometric analysis (reference value: 1.43%); assay type: functional, cell-based
[4] = test system: SW480; experiment: Cytotoxicity against human SW480 cells assessed as reduction in cell viability after 48 hrs by CCK8 assay; assay type: functional, cell-based
[5] = test system: A549; experiment: Induction of apoptosis in human A549 cells assessed as early apoptotic cells in presence of z-VAD-fmk by Annexin V-FITC/propidium iodide staining based flow cytometric analysis (reference value: 1.43%); assay type: functional, cell-based
[6] = organism: Homo sapiens; experiment: Cytotoxicity against human […] cells assessed as reduction in cell viability after 48 hrs by CCK8 assay; assay type: functional, cell-based
[7] = test system: A549; experiment: Induction of apoptosis in human A549 cells assessed as necrotic cells in presence of z-VAD-fmk by Annexin V-FITC/propidium iodide staining based flow cytometric analysis (reference value: 0.96%); assay type: functional, cell-based
[8] = test system: A549; experiment: Upregulation of Bax mRNA expression in human A549 cells at 10 uM after 24 hrs by qRT-PCR analysis; assay type: functional, cell-based
[9] = test system: SGC-7901; experiment: Cytotoxicity against human SGC7901 cells assessed as reduction in cell viability after 48 hrs by CCK8 assay; assay type: functional, cell-based
[10] = test system: A549; experiment: Induction of apoptosis in human A549 cells after 48 hrs by Annexin V-FITC/propidium iodide staining based flow cytometric analysis; assay type: functional, cell-based
[11] = test system: A549; experiment: Upregulation of Bax protein level in human A549 cells at 3 to 10 uM after 24 hrs by Western blot analysis; assay type: functional, cell-based
[12] = test system: A549; experiment: Induction of apoptosis in human A549 cells assessed as early apoptotic cells at 10 uM after 48 hrs by Annexin V-FITC/propidium iodide staining based flow cytometric analysis (reference value: 2.89%); assay type: functional, cell-based
[13] = test system: A549; experiment: Induction of apoptosis in human A549 cells assessed as late apoptotic cells by Annexin V-FITC/propidium iodide staining based flow cytometric analysis (reference value: 1.66%); assay type: functional, cell-based
[14] = test system: A549; experiment: Cytotoxicity against human A549 cells assessed as reduction in cell viability after 48 hrs by CCK8 assay; assay type: functional, cell-based
[15] = test system: A549; experiment: Downregulation of Bcl-2 protein level in human A549 cells at 3 to 10 uM after 24 hrs by Western blot analysis; assay type: functional, cell-based
[16] = test system: A549; experiment: Induction of apoptosis in human A549 cells assessed as necrotic cells by Annexin V-FITC/propidium iodide staining based flow cytometric analysis (reference value: 0.96%); assay type: functional, cell-based
[17] = test system: A549; experiment: Induction of apoptosis in human A549 cells assessed as cell shrinkage at 10 uM after 48 hrs by Annexin V-FITC/propidium iodide staining based laser scanning confocal microscopic analysis; assay type: functional
[18] = test system: A549; experiment: Induction of apoptosis in human A549 cells assessed as early apoptotic cells at 3 uM after 48 hrs by Annexin V-FITC/propidium iodide staining based flow cytometric analysis (reference value: 2.89%); assay type: functional, cell-based
[19] = test system: A549; experiment: Induction of apoptosis in human A549 cells assessed as membrane blebbing at 10 uM after 48 hrs by Annexin V-FITC/propidium iodide staining based laser scanning confocal microscopic analysis; assay type: functional, cell-based
[20] = test system: A549; experiment: Downregulation of Bcl-2 mRNA expression in human A549 cells at 10 uM after 24 hrs by qRT-PCR analysis; assay type: functional, cell-based
[21] = test system: A549; experiment: Induction of apoptosis in human A549 cells assessed as late apoptotic cells at 3 uM after 48 hrs by Annexin V-FITC/propidium iodide staining based flow cytometric analysis (reference value: 1.73%); assay type: functional, cell-based
[22] = test system: A549; experiment: Induction of apoptosis in human A549 cells assessed as reduction in pro caspase 3 level at 10 uM after 24 hrs by Western blot analysis; assay type: functional, cell-based
[23] = test system: A549; experiment: Induction of apoptosis in human A549 cells assessed as connection disappearance at 10 uM after 48 hrs by Annexin V-FITC/propidium iodide staining based laser scanning confocal microscopic analysis; assay type: functional, cell-based
[24] = test system: A549; experiment: Induction of apoptosis in human A549 cells assessed as nuclear enrichment at 10 uM after 48 hrs by Annexin V-FITC/propidium iodide staining based laser scanning confocal microscopic analysis; assay type: functional, cell-based
[25] = test system: A549; experiment: Induction of apoptosis in human A549 cells assessed as necrotic cells at 10 uM after 48 hrs by Annexin V-FITC/propidium iodide staining based flow cytometric analysis (reference value: 1.21%); assay type: functional, cell-based
[26] = test system: A549; experiment: Induction of apoptosis in human A549 cells assessed as necrotic cells at 3 uM after 48 hrs by Annexin V-FITC/propidium iodide staining based flow cytometric analysis (reference value: 1.21%); assay type: functional, cell-based

5H-dibenzo[c,f][1,5]oxabismocin-12(7H)-yl nitrate
Activity [1]: 5.26% | Activity [2]: 4.24% | Activity [3]: 18.6% | Activity [4]: Dose-dependent effect | Activity [5]: 3.19% | Activity [6]: Dose-dependent effect | Activity [7]: 2.66% | Activity [8]: Active | Activity [9]: Dose-dependent effect | Activity [10]: Dose-dependent effect | Activity [11]: Active | Activity [12]: 17.4% | Activity [13]: 10.2% | Activity [14]: Dose-dependent effect | Activity [15]: Active | Activity [16]: 2.24% | Activity [17]: Active | Activity [18]: 5.18% | Activity [19]: Active | Activity [20]: Active | Activity [21]: 4.16% | Activity [22]: Active | Activity [23]: Active | Activity [24]: Active | Activity [25]: 6.68% | Activity [26]: 0.617%
